From article PMC5571359, “Screening the Medicines for Malaria Venture Pathogen Box across Multiple Pathogens Reclassifies Starting Points for Open-Source Drug Discovery” (Antimicrobial Agents and Chemotherapy, 2017)
Where two headings read alike, the source gives them in different places.

What was measured:
[1] = system: NF54-pfs16-LUC-GFP stage IV gametocytes; test: Plasmodium falciparum late stage gametocyte (LSG) image-based assay; assay type: cell-based; conditions: for IC50 / inhibition at 20 µM: Plasmodium falciparum; for inhibition at 20 µM: NF54, read-out: percent inhibition at the top screening dose, P. falciparum NF54 LSG
[2] = system: L. donovani MHOM/IN/80/DD8 intracellular amastigotes; test: Leishmania donovani intracellular amastigote assay in THP-1 cells; assay type: cell-based
[3] = system: T. cruzi intracellular amastigotes; test: Intracellular anti-Trypanosoma cruzi image-based assay (amastigotes); assay type: cell-based; conditions: Trypanosoma cruzi; for Emax: read-out: T. cruzi Emax (maximal % inhibition plateau in dose response curve)
[4] = system: 3T3 host cells; test: T. cruzi assay, activity against 3T3 host cells; assay type: cell-based; conditions: reference compound set; IA = inactive at 16.4 μM
Procedure: page 4: […] Puromycin, 71 chloroquine, artesunate, DHA, pyronaridine and pyrimethamine were also tested in 72 IC50 format to act as internal reference compounds. 73 74 Intracellular anti-Trypanosoma cruzi Assay Protocol 75 The host cell cytoplasm, in which the parasite resides, is identified by the fluorescent 76 marker, HCS CellMask Green. Parasite and host cell nuclei are detected with the 77 fluorescent DNA intercalator, Hoechst 33342. The Opera® High Content Screening 78 System is used to take images of wells and a spot detection algorithm is used to 79 identify parasites within the cytoplasm. 80 81 Briefly, 1x 10^3 3T3 cells were added to collagen coated 384-well plates and following 82 24 hrs incubation at 37 °C, a multiplicity of infection (MOI) of 5:1 parasite: host cells 83 were added to the plate using a Multidrop liquid handler. Following additional 24 hrs 84 incubation, extracellular parasites were washed from the plates and RPMI with no […] 86 added to all wells. The final volume of media in the primary screening assay, before 87 addition of compound, was modified slightly to 55 µL. One µL of compounds, provided 88 by Compounds Australia, were diluted by the addition of 25 µL of sterile water. This […] 91 donovani). Five microliters of this dilution was added to assay plates. The final […] The final concentrations of compounds in the […] Following 48 hrs incubation in the presence 97 of compounds, wells were fixed, stained and read on the Opera® High Content 98 Screening System to assess compound activity. 99 The Z′-factor, as a measure of assay reproducibility, was determined from a plate […] The positive control used to calculate activity against […] To 103 assess the sensitivity of the T. cruzi assay, activity of the reference compounds 104 benznidazole, NFX, posaconazole and puromycin were determined. […] 108 resazurin as a measure of parasite viability. 109 T. b. brucei trypanosomes were cultured in vitro in HM1-9 medium supplemented with […] Fifty-five µL of logarithmic phase […] 112 incubated for 24 hrs at 37°C /5% CO2. Compounds were subsequently added to the […] Following […] 116 37°C / 5% CO2 followed by 22 hrs at room temperature. […] The percent

[5] = system: Plasmodium falciparum 3D7 asexual blood stage; test: microbe, parasite or virus in culture; conditions: for inhibition at 20 µM: 3D7, read-out: percent inhibition at the top screening dose, P. falciparum 3D7 ABS
[6] = system: T. b. brucei 427 bloodstream trypanosomes; test: T. b. brucei resazurin viability assay; assay type: cell-based, Trypanosoma brucei brucei; conditions: Trypanosoma brucei
[7] = system: P. falciparum stage V gametocytes; conditions: cited from earlier work; for IC50: stage V gametocytes, ref Pathogen Box supporting information, read-out: PF stage V GAMS PBox IC50
[8] = system: liver stage; conditions: liver stage; ref Pathogen Box supporting information; read-out: LIVER STAGE Pbox IC50; cited from earlier work
[9] = system: HepG2; conditions: read-out: HepG2 PBox CC50 µM; HepG2 CC50; ref Pathogen Box supporting information; cited from earlier work
[10] = system: P. falciparum ABS; conditions: cited from earlier work; for EC50: ChEMBL Data, TCMDC, read-out: TCMDC (ref 93) EX50; for IC50: Pf 3D7, ref Pathogen Box supporting information, read-out: Pf 3D7 Pbox IC50
[11] = system: HEK293 cells; test: HEK293 resazurin cell cytotoxicity assay; conditions: Homo sapiens
[12] = NF54, read-out: IC50 P. falciparum NF54 LSG, reference compound set, 11-point dose response, IA = inactive at 20 μM
[13] = Leishmania donovani, THP-1, read-out: IC50 L. donovani n = 1, reference compound set, first test, IA = inactive at 20 μM
[14] = Leishmania donovani, THP-1, read-out: IC50 L. donovani n = 2, reference compound set, second test, IA = inactive at 20 μM
[15] = reference compound set, IA = inactive at 16.4 μM, read-out: IC50 T. cruzi intracellular amastigotes
[16] = 3D7, read-out: IC50 P. falciparum 3D7 ABS
[17] = reference compound set, IA = inactive at 20 μM, read-out: IC50 T. brucei brucei trypomastigotes
[18] = NF54, read-out: Pf Stage IV GAMS Discovery Biology IC50 µM, stage IV gametocytes, Discovery Biology
[19] = 3D7, read-out: Pf 3D7 Discovery Biology IC50 µM, P. falciparum 3D7 asexual blood stage, Discovery Biology
[20] = Leishmania donovani, THP-1, intracellular amastigotes, Discovery Biology, some values carry an asterisk, read-out: L, donovani Discovery Biology IC50 µM
[21] = PBox compounds, read-out: IC50 T. brucei brucei (Discovery Biology)

SMILES | IC50 [1, 12] | IC50 [2, 13] | IC50 [2, 14] | IC50 [3, 15] | IC50 [4] | IC50 [5, 16] | IC50 [6, 17] | other results
NCC[C@H](O)C(=O)N[C@@H]1C[C@H](N)[C@@H](O[C@H]2O[C@H](CN)[C@@H](O)[C@H](O)[C@H]2O)[C@H](O)[C@H]1O[C@H]1O[C@H](CO)[C@@H](O)[C@H](N)[C@H]1O [Amikacin, reference compound] | > 20 µM | > 20 µM | > 20 µM | > 16.4 µM | > 16.4 µM | > 20 µM | > 20 µM | –
C[C@@H]1[C@H](O)[C@@H](C)/C=C/C=C/C=C/C=C/C=C/C=C/C=C/[C@H](O[C@@H]2O[C@H](C)[C@@H](O)[C@H](N)[C@@H]2O)C[C@@H]2O[C@](O)(C[C@@H](O)C[C@@H](O)[C@H](O)CC[C@@H](O)C[C@@H](O)CC(=O)O[C@H]1C)C[C@H](O)[C@H]2C(=O)O [Amphotericin B] | > 20 µM | – | > 20 µM | > 16.4 µM | > 16.4 µM | – | > 20 µM | IC50 ([2]; Leishmania donovani, THP-1, in-house control stock, not the PBox sample, two tests, read-out: IC50 of standard in-house assay control, L. donovani): 0.41 µM; inhibition at 20 µM ([2]; Leishmania donovani, THP-1, reference compound set, first test, 20 μM, read-out: percent inhibition at the top screening dose, L. donovani n = 1): 100%; activity against L. donovani at 20 μM ([2]; PBox sample, 20 μM): not active; inhibition at 20 µM [5]: 87%
COc1nc2ccc(Br)cc2cc1[C@@H](c1ccccc1)[C@@](O)(CCN(C)C)c1cccc2ccccc12 [Bedaquiline, reference compound] | – | > 20 µM | > 20 µM | > 16.4 µM | > 16.4 µM | – | – | inhibition at 20 µM [1]: 75%; inhibition at 20 µM [5]: 91%; inhibition at 20 µM ([6]; reference compound set, 20 μM, read-out: percent inhibition at the top screening dose, T. brucei brucei): 59%
O=C(Cn1ccnc1[N+](=O)[O-])NCc1ccccc1 [Benznidazole, reference compound] | > 20 µM | > 20 µM | > 20 µM | – | > 16.4 µM | > 20 µM | > 20 µM | inhibition at 16.4 µM ([3]; reference compound set, 16.4 μM, read-out: percent inhibition at the top screening dose, T. cruzi intracellular amastigotes): 94%
CC(C)/N=c1\cc2n(-c3ccc(Cl)cc3)c3ccccc3nc-2cc1Nc1ccc(Cl)cc1 [Clofazimine, reference compound] | > 20 µM | > 20 µM | > 20 µM | > 16.4 µM | > 16.4 µM | – | > 20 µM | inhibition at 20 µM [5]: 84%
CCN(CC)C(=O)N1CCN(C)CC1 [Diethylcarbamazine, reference compound] | > 20 µM | > 20 µM | > 20 µM | > 16.4 µM | > 16.4 µM | > 20 µM | > 20 µM | –
C[C@H]1c2cccc(O)c2C(=O)C2=C(O)[C@]3(O)C(=O)C(C(N)=O)=C(O)[C@@H](N(C)C)[C@@H]3[C@@H](O)[C@@H]21 [Doxycycline, reference compound] | – | > 20 µM | > 20 µM | > 16.4 µM | > 16.4 µM | – | > 20 µM | inhibition at 20 µM [1]: 77%; inhibition at 20 µM [5]: 90%
CC[C@@H](CO)NCCN[C@@H](CC)CO [Ethambutol, reference compound] | – | > 20 µM | > 20 µM | > 16.4 µM | > 16.4 µM | > 20 µM | > 20 µM | inhibition at 20 µM [1]: 42%
CC(=O)NC[C@H]1CN(c2ccc(N3CCOCC3)c(F)c2)C(=O)O1 [Linezolid, reference compound] | > 20 µM | > 20 µM | > 20 µM | > 16.4 µM | > 16.4 µM | > 20 µM | > 20 µM | –
COc1cc(-c2cc(-c3ccc(S(C)(=O)=O)cc3)cnc2N)ccc1O [MMV010576] | – | – | – | – | – | – | – | IC50 [1, 18]: 0.15 µM; IC50 [7]: 0.066 µM; IC50 ([2]; Leishmania donovani, THP-1, PBox compounds, intracellular amastigotes, read-out: IC50 L. donovani (Discovery Biology)): 5.18 µM; IC50 [8]: 2.52 µM; CC50 [9]: > 10 µM; EC50 [10]: 0.1 µM; IC50 [10]: 0.1 µM; IC50 [5, 19]: 0.07 µM
CN1CCC(NCc2cccc(-c3ccc(S(=O)(=O)NCc4ccccc4)cc3)c2)CC1 [MMV022029] | – | – | – | – | – | – | – | IC50 [1, 18]: 4.04 µM; IC50 [7]: 1.42 µM; IC50 [2, 20]: 5.03 µM; IC50 [8]: 4.55 µM; CC50 [9]: > 10 µM; inhibition at 20 µM ([11]; HEK293, read-out: HEK % Inhibition 20uM/IC50 Discovery Biology): 100%; EC50 [10]: 0.69 µM; IC50 [10]: 0.82 µM; IC50 [5, 19]: 0.69 µM; IC50 [6, 21]: 2.38 µM
O=C(Nc1ccc(N2CCNCC2)cc1)c1ccn2ncc(-c3cccc(Cl)c3)c2n1 [MMV022478] | – | – | – | – | – | – | – | activity in the Discovery Biology stage IV gametocyte (LSG) assay [1]: demonstrate activity; IC50 [1, 18]: 2.89 µM; activity against gametocytes (stage V), PBox supporting information ([7]; ref Pbox supporting information): demonstrate activity; IC50 [7]: 0.62 µM; IC50 [2, 20]: 5.02 µM; IC50 ([3]; intracellular amastigotes, Discovery Biology, read-out: T cruzi Discovery Biology IC50): 4.7 µM; IC50 [8]: > 10 µM; CC50 [9]: > 10 µM; IC50 ([11]; HEK293, read-out: HEK % Discovery Biology IC50 uM): 8.11 µM; EC50 [10]: 0.92 µM; IC50 [10]: 0.78 µM; IC50 [5, 19]: 1.29 µM; IC50 [6, 21]: 1.45 µM
COC(=O)Nc1nc2ccc(C(=O)c3ccccc3)cc2[nH]1 [Mebendazole, reference compound] | > 20 µM | > 20 µM | > 20 µM | > 16.4 µM | > 16.4 µM | > 20 µM | > 20 µM | –
OC(c1cc(C(F)(F)F)nc2c(C(F)(F)F)cccc12)C1CCCCN1 (stereo not shown) [Mefloquine, reference compound] | 5.61 µM | 5.17 µM | 6.58 µM | 4.7 µM | > 16.4 µM | – | 0.33 µM | Emax ([3]; reference compound set): 99%; IC50 ([5]; 3D7, read-out: IC50 P. falciparum 3D7 ABS, reference compound set, 11-point dose response, IA = inactive at 20 μM): < 0.016 µM
CCCCCCCCCCCCCCCCOP(=O)([O-])OCC[N+](C)(C)C [Miltefosine, reference compound] | > 20 µM | 11.7 µM | 2.26 µM | > 16.4 µM | > 16.4 µM | > 20 µM | > 20 µM | –
CC1CS(=O)(=O)CCN1/N=C/c1ccc([N+](=O)[O-])o1 (stereo not shown) [Nifurtimox, reference compound] | – | > 20 µM | > 20 µM | 1.42 µM | > 16.4 µM | > 20 µM | 5.38 µM | inhibition at 20 µM [1]: 39%; IC50 ([3]; in-house control stock, not the PBox sample, read-out: IC50 of standard in-house assay control, T. cruzi amastigotes): 1.23 µM; Emax ([3]; reference compound set): 100%
